Data: PMC6272674, “Selected Compounds Structurally Related to Acyclic Sesquiterpenoids and Their Antibacterial and Cytotoxic Activity” (Molecules, 2015)
In brackets after ≈: the same amount, converted by molar mass. One block for each compound: values may come before it.

What was measured:
Keratinocytes HaCaT = assay: MTT viability, HaCaT; assay type: cell-based, human; conditions: Homo sapiens, 24 h, range 10–1000 µM, read-out: half maximal inhibitory concentration (IC50), interpolated
How it was run: (§1)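 Assay used 24 h compound treatment of cells plated at 1 × 10^4 cells/100 µL, followed by 4 h MTT and A570 reading after SDS/DMF lysis; results reported relative to untreated control.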

[1] = test system: Colorectal Adenocarcinoma HT29; assay: MTT viability, HT29; assay type: cell-based, human; conditions: Homo sapiens, HT-29, 24 h, range 10–1000 µM, read-out: half maximal inhibitory concentration (IC50), interpolated
How it was run: as §1

[2] = test system: non-small cell lung cancer cells A549; set-up: method as in PMID 12753732; conditions: cited from earlier work
[3] = test system: non-small cell lung cancer cells H460; set-up: method as in PMID 12753732; conditions: cited from earlier work
[4] = test system: Acinetobacter baumannii ATCC 19606; assay: Micro-dilution broth MIC, Acinetobacter baumannii; assay type: cell-based; conditions: ATCC19606, 24 h, 37 °C, read-out: Minimum Inhibitory Concentrations MIC
Experimental: (§2) The standard strains, Gram-positive: Staphylococcus aureus ATCC […], Enterococcus faecalis Van B ATCC 51299 and Enterococcus faecium VA sensitive ATCC 35667, and Gram-negative: Escherichia coli ATCC 25922, Klebsiella pneumoniae ATCC 700603 and Acinetobacter baumannii ATCC 19606, came from a collection of the Environmental Biology Department, Medical University of Łódź. The standard strains were cultivated in Columbia Agar Medium and incubated at 37 °C for 24 h in aerobic conditions.
(§3) The antibacterial activity of the racemates and E/Z-mixtures was investigated using the micro‑dilution broth method. The compounds were diluted in ethanol. This stock solution was mixed with 100 µL of Mueller-Hinton broth to obtain concentrations from 10 µg/mL to 80 µg/mL. The mixtures were then transferred to 96-well microtiter plates. The microbial suspension was standardised to a cell density of 1.5 × 10^8 CFU, which was equal to an optical density of 0.5 on the Mc Farland scale by a bio-Merieux densitometer; one well was filled with broth only to act as a control for strain growth.

MTT viability, IEC6 = assay type: cell-based; conditions: rat, IEC-6 small intestine epithelial cells, 1000 µM (IC50 exceeded 1000 µM), read-out: viability ± standard deviation at 1000 µM
How it was run: as §1

[5] = test system: Staphylococcus aureus FDA209P; set-up: method as in PMID 19078849; conditions: 1 × 10^5 CFU, 48 h with shaking, turbidimetric; cited from earlier work
[6] = test system: Enterococcus faecium ATCC 35667; assay: Micro-dilution broth MIC, Enterococcus faecium; assay type: cell-based; conditions: ATCC35667, 24 h, 37 °C, read-out: Minimum Inhibitory Concentrations MIC
Experimental: as §2, §3

[7] = test system: Mycobacterium smegmatis mc^2 155 ATCC 700084; set-up: method as in PMID 21042264; conditions: micro-dilution, NCCLS guidelines; cited from earlier work
Malignant Melanoma MEWO = assay: MTT viability, MEWO; assay type: cell-based, human; conditions: Homo sapiens, 24 h, range 10–1000 µM, read-out: half maximal inhibitory concentration (IC50), interpolated
How it was run: as §1

[8] = test system: Enterococcus faecalis ATCC 51299; assay: Micro-dilution broth MIC, Enterococcus faecalis; assay type: cell-based; conditions: ATCC51299, 24 h, 37 °C, read-out: Minimum Inhibitory Concentrations MIC
Experimental: as §2, §3

[9] = test system: Escherichia coli ATCC 25922; assay: Micro-dilution broth MIC, Escherichia coli; assay type: cell-based; conditions: ATCC25922, 24 h, 37 °C, read-out: Minimum Inhibitory Concentrations MIC
Experimental: as §2, §3

[10] = test system: Staphylococcus aureus ATCC 43300; assay: Micro-dilution broth MIC, Staphylococcus aureus; assay type: cell-based; conditions: ATCC43300, 24 h, 37 °C, read-out: Minimum Inhibitory Concentrations MIC
Experimental: as §2, §3

[11] = test system: Promyelocytic Leukaemia HL-60; assay: MTT viability, HL-60; assay type: cell-based, human; conditions: Homo sapiens, HL-60, 24 h, HL-60, MTT, range 10–1000 µM, read-out: half maximal inhibitory concentration (IC50), interpolated
How it was run: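 Viability is given as the optical density ratio of treated to control wells after 24 h compound treatment at 37 °C. Formazan from a 4 h MTT incubation is solubilised with SDS/DMF and measured at 570 nm.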

Fibroblasts HFIG = assay: MTT viability, HFIG; assay type: cell-based, human; conditions: Homo sapiens, Fibroblast, 24 h, range 10–1000 µM, read-out: half maximal inhibitory concentration (IC50), interpolated
How it was run: as §1

[12] = test system: Klebsiella pneumoniae ATCC 700603; assay: Micro-dilution broth MIC, Klebsiella pneumoniae; assay type: cell-based; conditions: ATCC700603, 24 h, 37 °C, read-out: Minimum Inhibitory Concentrations MIC
Experimental: as §2, §3

MTT viability, HaCaT = assay type: cell-based, human; conditions: human, HaCaT keratinocytes, 1000 µM (IC50 exceeded 1000 µM), read-out: viability ± standard deviation at 1000 µM
How it was run: as §1

[13] = test system: Acinetobacter baumannii ATCC 19606; set-up: method as in doi:10.1002/ffj.3238; conditions: data presented by the authors before; cited from earlier work
MTT viability, HT29 = assay type: cell-based, human; conditions: human, HT29 colorectal adenocarcinoma cells, 1000 µM (IC50 exceeded 1000 µM), read-out: viability ± standard deviation at 1000 µM
How it was run: as §1

[14] = test system: Enterococcus faecium ATCC 35667; set-up: method as in doi:10.1002/ffj.3238; conditions: data presented by the authors before; cited from earlier work
[15] = test system: human melanoma MDA/MB‑435 cell lines; set-up: method as in PMID 19084293; conditions: cited from earlier work
MTT viability, MEWO = assay type: cell-based, human; conditions: human, MEWO malignant melanoma cells, 1000 µM (IC50 exceeded 1000 µM), read-out: viability ± standard deviation at 1000 µM
How it was run: as §1

[16] = test system: Enterococcus faecalis ATCC 51299; set-up: method as in doi:10.1002/ffj.3238; conditions: data presented by the authors before; cited from earlier work
[17] = test system: colon carcinoma HCT-8 cells; set-up: method as in PMID 19084293; conditions: cited from earlier work
[18] = test system: Escherichia coli ATCC 25922; set-up: method as in doi:10.1002/ffj.3238; conditions: data presented by the authors before; cited from earlier work
[19] = test system: Staphylococcus aureus ATCC 43300; set-up: method as in doi:10.1002/ffj.3238; conditions: data presented by the authors before; cited from earlier work
MTT viability, HFIG = assay type: cell-based, human; conditions: human, HFIG (HFIB-G) gingival fibroblasts, 1000 µM (IC50 exceeded 1000 µM), read-out: viability ± standard deviation at 1000 µM
How it was run: as §1

[20] = test system: Klebsiella pneumoniae ATCC 700603; set-up: method as in doi:10.1002/ffj.3238; conditions: data presented by the authors before; cited from earlier work

IC50 [1]: 930 µM
MIC [4]: 18 µg/mL (≈ 80.9 µM)
MIC [6]: 16 µg/mL (≈ 72 µM)
IC50 (Malignant Melanoma MEWO): 378 µM
MIC [8]: 18 µg/mL (≈ 80.9 µM)
MIC [9]: 28 µg/mL (≈ 126 µM)
MIC [10]: 26 µg/mL (≈ 117 µM)
IC50 [11]: 54 µM
MIC [12]: 16 µg/mL (≈ 72 µM)
Structure (SMILES): CC(C)=CCC/C(C)=C/CC/C(C)=C/CO [Farnesol (4), farnesol, reference compound]
IC50 (Keratinocytes HaCaT): 489 µM
IC50 [2]: ~4.5 µM
IC50 [3]: ~4.5 µM
viability at 24 h, 1000 µM (MTT viability, IEC6): 58%
concentration at which active [5]: ≥ 10 µg/mL
MIC [7]: 64 µg/mL (≈ 288 µM)
IC50 (Fibroblasts HFIG): 350 µM

IC50 [11]: ~135 µM
Structure (SMILES): C=CC(C)(O)CC/C=C(\C)CCC=C(C)C (stereo not drawn) [Nerolidol (2), nerolidol, reference compound]
viability at 24 h, 1000 µM (MTT viability, HaCaT): 102 ± 5%
Minimum Inhibitory Concentrations MIC [13]: 26 µg/mL
viability at 24 h, 1000 µM (MTT viability, HT29): 103%
viability at 24 h, 1000 µM (MTT viability, IEC6): 76%
Minimum Inhibitory Concentrations MIC [14]: 32 µg/mL
toxicity [15]: no toxicity
viability at 24 h, 1000 µM (MTT viability, MEWO): 99%
Minimum Inhibitory Concentrations MIC [16]: 38 µg/mL
toxicity [17]: no toxicity
Minimum Inhibitory Concentrations MIC [18]: 46 µg/mL
Minimum Inhibitory Concentrations MIC [19]: 48 µg/mL
viability at 24 h, 1000 µM (MTT viability, HFIG): 75%
Minimum Inhibitory Concentrations MIC [20]: 16 µg/mL
